Results from US20060160906A1, “Polyamine analogs as therapeutic agents for ocular diseases” (priority 2004, published 2006).
Entries after “also recorded” stand apart in the source; their conditions may differ.

Assays:
[1] = tested on: retinal structure; assay: Retinal structure in hematoxylin and eosin stained retinal sections; format: in vivo, mice
Experimental: The remaining 10 mice were given an intravitreous injection of 20 μg of CGC-11144 in one eye and vehicle in the fellow eye on days 7 and 10 and then CNV area was measured at each rupture site at 14 days after laser (n=30 in each group). […] After 3 days, ERGs were performed as described in Methods. […] (In FIGS. 3C-3F, retinal sections were stained with hematoxylin and eosin; FIG. 3C and FIG. 3E, 40×; FIG. 3D and FIG. 3F, 100×.)

[2] = tested on: CNV lesions; assay: TUNEL staining for apoptosis within CNV lesions; format: in vivo, C57BL/6 mice; conditions: periocular 200 μg on days 7 and 8 after laser
Experimental: On days 7 and 8 after laser-induced rupture of Bruch's membrane, adult female C57BL/6 mice received a periocular injection of 0.2 mg of CGC-11144 or vehicle and then they were euthanized. Eyes were embedded in OCT and 10 μm serial sections were cut through CNV lesions and fixed with 1% paraformaldehyde for 10 minutes at room temperature. TUNEL staining was done using an ApopTag Fluorescein Red Kit (Intergen, Purchase, N.Y.) following the manufacturer's instructions. Adjacent sections were stained for GSA to visualize vascular cells on some sections; TUNEL staining was done to identify cell undergoing apoptosis on adjacent sections.

[3] = tested on: choroidal neovascularization (CNV) at Bruch's membrane rupture sites; assay: Mouse model of laser-induced choroidal neovascularization (rupture of Bruch's membrane), CNV area on choroidal flat mounts; format: in vivo, C57BL/6J mice
[4] = tested on: subretinal neovascularization; assay: Rhodopsin/VEGF transgenic mice, subretinal neovascularization; format: in vivo, rhodopsin/VEGF transgenic mice (V6 mice); conditions: periocular injection at P7, measured P21; 100 μg CGC-11144, 1 mg CGC-11047, 750 μg CGC-11093
Source text: Transgenic mice (V6 mice) in which the rhodopsin promoter drives expression of VEGF165 in photoreceptors have onset of VEGF expression at post-natal day 7 (P7) and soon after begin to develop neovascularization originating from the deep capillary bed that grows through the photoreceptor layer into the subretinal space. (Okamoto N et al., Amer. J. Pathol. 151: 281-91 (1997); Tobe T et al., Invest. Ophthalmol. Vis. Sci. 39: 180-188 (1998)). Hemizygous transgene positive mice were given a periocular injection of 100 μg of CGC-11144 (n=3), 1 mg of CGC-11047 (n=3), 750 μg of CGC-11093 (n=3) or vehicle (n=7) at P7. At post-natal day 21 (P21), mice were euthanized and the amount of subretinal neovascularization was quantified as previously described (Tobe, ibid.). Briefly, mice were anesthetized, perfused with fluorescein-labeled dextran, and the number of neovascular lesions on the outer surface of the retina and their total area were measured on retinal flat mounts by image analysis as described in Example 1.

[5] = tested on: retinal function (ERG a- and b-wave amplitudes); assay: Retinal function assessed by electroretinograms (ERG); format: in vivo, C57BL/6 mice
Experimental: Adult female C57BL/6 mice were given an intravitreous injection of 2, 4, or 20 μg of CGC-11144 in one eye and an injection of vehicle in the fellow eye and after 3 days ERGs were recorded as previously described (Okoye et al., J. Neuosci. 23: 4164-4172 (2003)). ERGs were also performed after daily periocular injections of 0.2 mg of CGC-11144 for 2 weeks. Mice were dark-adapted for a standardized 12-hour period overnight and ERG recordings were performed using the Espion ERG Diagnosys (Diagnosys LLL, Littleton, Mass.). All manipulations were done with dim red light illumination. Beginning the same time each morning, mice were anesthetized by ip injection of 25 μl/g body weight of Avertin (Aldrich, Milwaukee, Wis.) diluted 1:39 in PBS. Corneas were anesthetized with a drop of 0.5% proparacaine hydrochloride (Alcon Labs) and pupils were dilated with 1% tropicamide. Mice were placed on a pad heated to 39° C. and platinum electrodes were placed on each cornea after application of gonioscopic prism solution (Alcon Labs). The reference electrode was placed subcutaneously in the anterior scalp between the eyes, and the ground electrode was inserted into the tail. Electrode impedance was balanced for each eye pair measured. The head of the mouse was placed in a standardized position in a Ganzfeld bowl illuminator that assured equal illumination of the eyes. Simultaneous recordings from both eyes were made for eleven intensity levels of white light ranging from −3.00 to +1.40 log cd-s/m^2. The Espion ERG machine measures the ERG response six times at each flash-intensity and records the average value.

[6] = Tolerability of intraperitoneal injections in mice; format: in vivo
[7] = daily periocular 200 μg for 14 days
[8] = intravitreous 2 μg, after 3 days

## CCNCCCCNCCCCNCCCCNCCCCNC/C=C/CNCCCCNCCCCNCCCCNCCCCNCC.Cl.Cl.Cl.Cl.Cl.Cl.Cl.Cl.Cl.Cl [CGC-11144]
[1]; [7]
  appearance of retinas: normal-appearing retinas
[1]; intravitreous 20 μg
  retinal structure / morphology: markedly disrupted; also recorded: substantial disruption of the morphology of the retina
[2]
  TUNEL-stained (apoptotic) cells within CNV lesions: many TUNEL-stained cells within CNV lesions; also recorded: several red TUNEL-stained nuclei located within the CNV lesion
[3]; daily periocular injections days 7 to 14, 200 μg CGC-11144, 100 μg DFMO, or both
  area of CNV vs day 7 baseline and vehicle fellow eyes (regression): significant reduction in CNV area; also recorded: significantly less
[3]; intraocular 20 μg on days 0 and 7 after rupture
  area of CNV vs controls (no injection or vehicle-injected fellow eye): significantly less CNV than corresponding controls
[3]; intravitreous 20 μg on days 0 and 7 after rupture, measured day 14
  decrease in area of CNV compared to vehicle-treated or untreated eyes: approximately 40%
[3]; intravitreous 20 μg on days 7 and 10, measured day 14
  area of established CNV vs vehicle fellow eyes and vs 7 day baseline (regression): significantly smaller in area
[3]; ip 10 mg/kg twice a week, 2 weeks after rupture of Bruch's membrane, 10 mg/kg
  size (area) of CNV lesions vs vehicle: statistically significant reductions in the size of CNV lesions; also recorded: small, but significant reductions in CNV
[3]; ip 20 mg/kg twice a week, surviving mice, 20 mg/kg
  size (area) of CNV lesions vs vehicle: small statistically significant reductions in CNV lesion size; also recorded: small, but significant reductions in CNV
[3]; periocular 200 μg 3 times a week, day 14
  decrease in CNV area compared to vehicle-treated eyes: 40%
[3]; periocular 200 μg on days 7, 10 and 13, measured day 14
  area of established CNV vs vehicle fellow eyes and 7 day baseline (regression): significant decrease in area of CNV; also recorded: significantly smaller
[3]; periocular 200 μg three times a week, day 14
  area of CNV vs controls (no injection or vehicle-injected fellow eye): significantly less CNV than corresponding controls
[3]; single periocular injection at time of rupture, 200 μg CGC-11144, 2 mg CGC-11047, 1.5 mg CGC-11093
  amount of CNV on day 14 vs vehicle (suppression): significantly reduced the amount of CNV
[3]; single periocular injection one week prior to rupture, 200 μg CGC-11144, 2 mg CGC-11047, 1.5 mg CGC-11093
  amount of CNV vs vehicle (duration of effect): significant reduction of the amount of CNV
[3]; single periocular injection two weeks prior to rupture, 200 μg CGC-11144, 2 mg CGC-11047, 1.5 mg CGC-11093
  amount of CNV vs vehicle (duration of effect): no significant effect
[4]
  subretinal neovascularization vs vehicle: significantly less subretinal neovascularization
[5]; [7]
  ERG a- and b-wave amplitudes vs vehicle: normal ERG a- and b-wave amplitudes; also recorded: no difference in mean a-wave or b-wave amplitudes
[5]; [8]
  ERG a-wave amplitudes: only mildly decreased at highest flash intensities
  ERG b-wave amplitudes: profoundly reduced at all flash intensities
[5]; intravitreous 10 μg, after 3 days
  ERG amplitudes: striking decrease in ERG amplitudes
[5]; intravitreous 20 μg, after 3 days
  ERG a- and b-wave amplitudes: dramatically reduced
[5]; intravitreous 2, 4, or 20 μg, after 3 days, p<0.05
  ERG b-wave amplitudes compared to PBS: significant decrease in b-wave amplitudes
[5]; intravitreous 4 or 20 μg, after 3 days, p<0.05
  ERG a-wave amplitudes compared to PBS: significant decrease in a-wave amplitudes
[6]; ip 10 mg/kg twice a week
  tolerability: well tolerated
[6]; ip 20 mg/kg twice a week, 2-week treatment period
  tolerability: not well tolerated and several mice died
